{"source": "patent US6914045B2", "about": "“Glycopeptide antibiotics” (Wyeth Holdings Corporation, priority 2001, dated 2005)", "experiment_in_all_cases": "in vitro antibacterial evaluation, MIC by broth dilution", "assay_type_in_all_cases": "cell-based", "key": {"Streptococcus sp.": {"test_system": "Streptococcus sp.", "conditions": "broth dilution, 18 hours at 35° C.", "how_it_was_run": "(§1)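 Test organisms, which included recent clinical isolates resistant to methicillin, penicillin and/or vancomycin, were inoculated at 5×10^5 CFU/mL into Muller-Hinton II […] containing antibiotic at 64-0.06 μg/mL. Minimum inhibitory concentrations were then read as the lowest level inhibiting growth.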"}, "Staphylococcus sp.": {"test_system": "Staphylococcus sp.", "conditions": "broth dilution, 18 hours at 35° C.", "how_it_was_run": "as §1"}, "Enterococcus sp.": {"test_system": "Enterococcus sp.", "conditions": "broth dilution, 18 hours at 35° C.", "how_it_was_run": "as §1"}, "Escherichia coli": {"test_system": "Escherichia coli", "conditions": "18 hours at 35° C.", "how_it_was_run": "as §1"}}}
{"smiles": "CC(c1ccccc1)C1NC(=O)CNC(=O)C(CO)NC(=O)C(C(O)C2CNC(=N)N2C2OC(CO)C(O)C(O)C2O)NC(=O)C(C(O)C2CNC(=N)N2)NC(=O)C(Cc2ccc(OC3OC(CO)C(OC4OC5COC(CC6CCCCC6)OC5C(O)C4O)C(O)C3O)cc2)NC1=O", "note": "(stereo not shown) [Example 122]", "values": [{"measurement": "MIC Streptococcus agalactiae (GC 4564)", "setting": "Streptococcus sp.; Streptococcus agalactiae (GC 4564)", "result": 0.12, "unit": "µg/mL"}, {"measurement": "MIC Streptococcus pneumoniae (ATCC 6301)", "setting": "Streptococcus sp.; Streptococcus pneumoniae (ATCC 6301)", "result": "<0.06", "unit": "µg/mL"}, {"measurement": "MIC Streptococcus pneumoniae (GC 1894)", "setting": "Streptococcus sp.; Streptococcus pneumoniae (GC 1894)", "result": "<0.06", "unit": "µg/mL"}, {"measurement": "MIC Streptococcus pneumoniae (GC 4565)", "setting": "Streptococcus sp.; Streptococcus pneumoniae (GC 4565)", "result": 0.12, "unit": "µg/mL"}, {"measurement": "MIC Streptococcus pyogenes (GC 4563)", "setting": "Streptococcus sp.; Streptococcus pyogenes (GC 4563)", "result": "<0.06", "unit": "µg/mL"}, {"measurement": "MIC Streptococcus pneumoniae (ATCC 6301)", "setting": "Streptococcus sp.; strain ATCC 6301", "result": "<0.06", "unit": "µg/mL"}, {"measurement": "MIC Streptococcus pneumoniae (GC 1894)", "setting": "Streptococcus sp.; strain GC 1894", "result": "<0.06", "unit": "µg/mL"}, {"measurement": "MIC Streptococcus pyogenes (GC 4563)", "setting": "Streptococcus sp.; strain GC 4563", "result": "<0.06", "unit": "µg/mL"}, {"measurement": "MIC Streptococcus agalactiae (GC 4564)", "setting": "Streptococcus sp.; strain GC 4564", "result": 0.12, "unit": "µg/mL"}, {"measurement": "MIC Streptococcus pneumoniae (GC 4565)", "setting": "Streptococcus sp.; strain GC 4565", "result": 0.12, "unit": "µg/mL"}, {"measurement": "MIC Staphylococcus aureus (ATCC 29213)", "setting": "Staphylococcus sp.", "result": 2, "unit": "µg/mL"}, {"measurement": "MIC Staphylococcus aureus (GC 1131)", "setting": "Staphylococcus sp.", "result": 2, "unit": "µg/mL"}, {"measurement": "MIC Staphylococcus aureus (GC 3051)", "setting": "Staphylococcus sp.", "result": 2, "unit": "µg/mL"}, {"measurement": "MIC Staphylococcus aureus (GC 3053)", "setting": "Staphylococcus sp.", "result": 2, "unit": "µg/mL"}, {"measurement": "MIC Staphylococcus aureus (GC 4541)", "setting": "Staphylococcus sp.", "result": 2, "unit": "µg/mL"}, {"measurement": "MIC Staphylococcus aureus (GC 4542)", "setting": "Staphylococcus sp.", "result": 2, "unit": "µg/mL"}, {"measurement": "MIC Staphylococcus aureus (GC 4544)", "setting": "Staphylococcus sp.", "result": 1, "unit": "µg/mL"}, {"measurement": "MIC Staphylococcus aureus (GC 4545)", "setting": "Staphylococcus sp.", "result": 2, "unit": "µg/mL"}, {"measurement": "MIC Staphylococcus aureus (GC 1131)", "setting": "Staphylococcus sp.; inoculum 5×10^5 CFU/mL, strain GC 1131", "result": 2, "unit": "µg/mL"}, {"measurement": "MIC Staphylococcus aureus (ATCC 29213)", "setting": "Staphylococcus sp.; strain ATCC 29213", "result": 2, "unit": "µg/mL"}, {"measurement": "MIC Staphylococcus aureus (GC 3051)", "setting": "Staphylococcus sp.; strain GC 3051", "result": 2, "unit": "µg/mL"}, {"measurement": "MIC Staphylococcus aureus (GC 3053)", "setting": "Staphylococcus sp.; strain GC 3053", "result": 2, "unit": "µg/mL"}, {"measurement": "MIC Staphylococcus aureus (GC 4541)", "setting": "Staphylococcus sp.; strain GC 4541", "result": 2, "unit": "µg/mL"}, {"measurement": "MIC Staphylococcus aureus (GC 4542)", "setting": "Staphylococcus sp.; strain GC 4542", "result": 2, "unit": "µg/mL"}, {"measurement": "MIC Staphylococcus aureus-SMITH (GC 4543)", "setting": "Staphylococcus sp.; strain GC 4543", "result": 2, "unit": "µg/mL"}, {"measurement": "MIC Staphylococcus aureus (GC 4544)", "setting": "Staphylococcus sp.; strain GC 4544", "result": 1, "unit": "µg/mL"}, {"measurement": "MIC Staphylococcus aureus (GC 4545)", "setting": "Staphylococcus sp.; strain GC 4545", "result": 2, "unit": "µg/mL"}, {"measurement": "MIC Staphylococcus haemolyticus (GC 4546)", "setting": "Staphylococcus sp.; strain GC 4546", "result": 2, "unit": "µg/mL"}, {"measurement": "MIC Coagulase Negative Staphylococcus (GC 4547)", "setting": "Staphylococcus sp.; strain GC 4547", "result": 2, "unit": "µg/mL"}, {"measurement": "MIC Coagulase Negative Staphylococcus (GC 4548)", "setting": "Staphylococcus sp.; strain GC 4548", "result": 1, "unit": "µg/mL"}, {"measurement": "MIC Coagulase Negative Staphylococcus (GC 4549)", "setting": "Staphylococcus sp.; strain GC 4549", "result": 1, "unit": "µg/mL"}, {"measurement": "MIC Coagulase Negative Staphylococcus (GC 4551)", "setting": "Staphylococcus sp.; strain GC 4551", "result": 2, "unit": "µg/mL"}, {"measurement": "MIC Coagulase Negative Staphylococcus (GC 6257)", "setting": "Staphylococcus sp.; strain GC 6257", "result": 1, "unit": "µg/mL"}, {"measurement": "MIC Staphylococcus aureus-SMITH (GC 4543)", "setting": "Staphylococcus sp.; strain SMITH GC 4543", "result": 2, "unit": "µg/mL"}, {"measurement": "MIC Enterococcus avium (GC 4558)", "setting": "Enterococcus sp.; Enterococcus avium (GC 4558)", "result": 2, "unit": "µg/mL"}, {"measurement": "MIC Enterococcus faecalis (ATCC 29212)", "setting": "Enterococcus sp.; Enterococcus faecalis (ATCC 29212)", "result": 2, "unit": "µg/mL"}, {"measurement": "MIC Enterococcus faecalis (GC 2242)", "setting": "Enterococcus sp.; Enterococcus faecalis (GC 2242)", "result": 2, "unit": "µg/mL"}, {"measurement": "MIC Enterococcus faecalis (GC 2691)", "setting": "Enterococcus sp.; Enterococcus faecalis (GC 2691)", "result": 2, "unit": "µg/mL"}, {"measurement": "MIC Enterococcus faecalis (GC 3059)", "setting": "Enterococcus sp.; Enterococcus faecalis (GC 3059)", "result": 2, "unit": "µg/mL"}, {"measurement": "MIC Enterococcus faecalis (GC 4552)", "setting": "Enterococcus sp.; Enterococcus faecalis (GC 4552)", "result": 2, "unit": "µg/mL"}, {"measurement": "MIC Enterococcus faecalis (GC 4553)", "setting": "Enterococcus sp.; Enterococcus faecalis (GC 4553)", "result": 4, "unit": "µg/mL"}, {"measurement": "MIC Enterococcus faecalis (GC 4554)", "setting": "Enterococcus sp.; Enterococcus faecalis (GC 4554)", "result": 2, "unit": "µg/mL"}, {"measurement": "MIC Enterococcus faecalis (GC 6189)", "setting": "Enterococcus sp.; Enterococcus faecalis (GC 6189)", "result": 2, "unit": "µg/mL"}, {"measurement": "MIC Enterococcus faecium (GC 2243)", "setting": "Enterococcus sp.; Enterococcus faecium (GC 2243)", "result": 2, "unit": "µg/mL"}, {"measurement": "MIC Enterococcus faecium (GC 4556)", "setting": "Enterococcus sp.; Enterococcus faecium (GC 4556)", "result": 2, "unit": "µg/mL"}, {"measurement": "MIC Enterococcus faecium (GC 4557)", "setting": "Enterococcus sp.; Enterococcus faecium (GC 4557)", "result": 4, "unit": "µg/mL"}, {"measurement": "MIC Enterococcus faecalis (ATCC 29212)", "setting": "Enterococcus sp.; strain ATCC 29212", "result": 2, "unit": "µg/mL"}, {"measurement": "MIC Enterococcus faecalis (GC 2242)", "setting": "Enterococcus sp.; strain GC 2242", "result": 2, "unit": "µg/mL"}, {"measurement": "MIC Enterococcus faecium (GC 2243)", "setting": "Enterococcus sp.; strain GC 2243", "result": 2, "unit": "µg/mL"}, {"measurement": "MIC Enterococcus faecalis (GC 2691)", "setting": "Enterococcus sp.; strain GC 2691", "result": 2, "unit": "µg/mL"}, {"measurement": "MIC Enterococcus faecalis (GC 3059)", "setting": "Enterococcus sp.; strain GC 3059", "result": 2, "unit": "µg/mL"}, {"measurement": "MIC Enterococcus faecalis (GC 4552)", "setting": "Enterococcus sp.; strain GC 4552", "result": 2, "unit": "µg/mL"}, {"measurement": "MIC Enterococcus faecalis (GC 4553)", "setting": "Enterococcus sp.; strain GC 4553", "result": 4, "unit": "µg/mL"}, {"measurement": "MIC Enterococcus faecalis (GC 4554)", "setting": "Enterococcus sp.; strain GC 4554", "result": 2, "unit": "µg/mL"}, {"measurement": "MIC Enterococcus faecium (GC 4556)", "setting": "Enterococcus sp.; strain GC 4556", "result": 2, "unit": "µg/mL"}, {"measurement": "MIC Enterococcus faecium (GC 4557)", "setting": "Enterococcus sp.; strain GC 4557", "result": 4, "unit": "µg/mL"}, {"measurement": "MIC Enterococcus avium (GC 4558)", "setting": "Enterococcus sp.; strain GC 4558", "result": 2, "unit": "µg/mL"}, {"measurement": "MIC Enterococcus faecalis (GC 6189)", "setting": "Enterococcus sp.; strain GC 6189", "result": 2, "unit": "µg/mL"}, {"measurement": "MIC Escherichia coli (ATCC 25922)", "setting": "Escherichia coli; strain ATCC 25922", "result": 32, "unit": "µg/mL"}, {"measurement": "MIC Escherichia coli (GC 4559)", "setting": "Escherichia coli; strain GC 4559", "result": 32, "unit": "µg/mL"}, {"measurement": "MIC Escherichia coli (GC 4560)", "setting": "Escherichia coli; strain GC 4560", "result": 2, "unit": "µg/mL"}]}
